# Experimental data: patent publication US9872875B2, “Component and method for treating viral disease” (Institut Pasteur of Shanghai, Chinese Academy of Sciences, priority 2012, dated 2018)
# Read-outs that look alike come from different tables or passages of the source.
# Assays:
# [1] = biological target: T1, P2X2 receptor (Homo sapiens, UniProt Q9UBL9); details: cited from earlier work
# T1 sequence (Q9UBL9 1-471): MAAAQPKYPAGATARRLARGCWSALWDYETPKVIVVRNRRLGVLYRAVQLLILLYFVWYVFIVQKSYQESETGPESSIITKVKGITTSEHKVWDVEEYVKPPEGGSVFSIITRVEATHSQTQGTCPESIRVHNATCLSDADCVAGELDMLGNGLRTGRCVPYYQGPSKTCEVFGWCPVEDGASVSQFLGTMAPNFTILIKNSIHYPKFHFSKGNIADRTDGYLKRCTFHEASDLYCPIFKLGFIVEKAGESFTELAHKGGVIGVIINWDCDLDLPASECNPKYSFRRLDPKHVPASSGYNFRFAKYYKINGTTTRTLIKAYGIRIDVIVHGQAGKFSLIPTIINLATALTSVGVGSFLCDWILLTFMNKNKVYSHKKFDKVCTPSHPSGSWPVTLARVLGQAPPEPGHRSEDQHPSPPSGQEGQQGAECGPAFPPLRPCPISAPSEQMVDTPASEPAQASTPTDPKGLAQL
# [2] = system: EV71 clinical isolate (EV71 FY 573); assay: EV71 clinical isolate replication in RD cells, viral load by quantitative RT-PCR; type: cell-based, Enterovirus 71
# Description: RD cells were infected with EV71 clinical isolate (EV71 FY 573) in different E02 concentrations, at the MOI (multiplicity of infection) of 0.1. At 46 h post infection, viral RNA in culture supernatant was extracted, and the relative EV71 viral load was determined by quantitative RT-PCR. Procedures are detailed as follows:
# (1) Cell seeding: 24 h prior to infection, RD cells were seeded in 96-well cell culture plates, 5×10^4 cells per well.
# (2) Infection: • a. Virus pre-incubated with drug: virus stock solution was diluted to 5×10^4 TCID50/ml with DMEM and dispensed to 96-well plates at 100 μl per well, and 11 μl of E02 dissolved in DMEM at corresponding concentration or DMEM was added, and incubated at 37° C. for 1 h; • b. Cells pre-incubated with drug: cell culture medium was removed from 96-well plates, each well was added 100 μl of DMEM, then added 11 μl of E02 solution at corresponding concentration or DMEM, and incubated at 37° C. for 1 h; • c. After 1 h incubation, drug was discarded from cell culture plates, 111 μl of virus pre-incubated with drug was transferred to cell culture plates, and incubated at 37° C. for 1 h; • d. After incubation, the supernatant was discarded, cells were washed twice with 50 μl of DMEM, each well was added 180 μl of DMEM containing 2% FBS, 20 μl of E02 solution at corresponding concentration or DMEM. Cell culture plates were placed in 37° C., 5% (v/v) carbon dioxide incubator for incubation.
# (3) Harvesting virus and RNA extraction: after infection, cells were cultured for 46 h, 140 μl of supernatant was transferred to 96-deep well plates, viral RNA extraction was performed using viral RNA extraction kit (QIAGEN QIAamp Viral RNA Mini Kit, cat #52906) according to standard operating procedures of the kit.
# (4) Viral load measurements: EV71 5′UTR gene was detected using ABI Taqman one-step RT-PCR kit (ABI TaqMan® One-Step RT-PCR, cat #4309169) of ABI 7900HT 384-well plates PCR system. EV71 5′UTR quantitative RT-PCR thermal cycling program (Taqman);
# (5) PCR CT values were converted to viral load using PCR standard curves (standard curves were obtained by CT values determined by performing RT-PCR on RNA extracted from viruses serially diluted with defined titers at 10-fold).
# [3] = biological target: T2, P2X1 receptor (Homo sapiens, UniProt P51575); details: cited from earlier work
# T2 sequence (P51575 1-399): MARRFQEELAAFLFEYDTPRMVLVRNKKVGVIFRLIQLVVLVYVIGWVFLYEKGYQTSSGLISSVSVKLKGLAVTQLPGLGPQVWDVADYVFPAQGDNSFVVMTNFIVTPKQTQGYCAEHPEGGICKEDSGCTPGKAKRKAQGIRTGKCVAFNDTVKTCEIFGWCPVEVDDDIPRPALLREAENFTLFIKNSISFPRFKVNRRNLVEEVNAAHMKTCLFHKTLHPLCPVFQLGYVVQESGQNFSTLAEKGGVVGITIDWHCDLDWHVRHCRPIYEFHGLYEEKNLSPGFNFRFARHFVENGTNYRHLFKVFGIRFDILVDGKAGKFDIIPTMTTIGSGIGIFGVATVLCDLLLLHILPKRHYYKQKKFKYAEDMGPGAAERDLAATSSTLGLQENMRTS
# [4] = biological target: P2X6 receptor (Homo sapiens, UniProt O15547); set-up: key: −: no activity; +: activating concentration >10 μM; ++: activating concentration 1~10 μM; +++: activating concentration <1 μM; details: Table 8, antagonists; cited from earlier work
# Sequence of P2X6 receptor (O15547 whole entry): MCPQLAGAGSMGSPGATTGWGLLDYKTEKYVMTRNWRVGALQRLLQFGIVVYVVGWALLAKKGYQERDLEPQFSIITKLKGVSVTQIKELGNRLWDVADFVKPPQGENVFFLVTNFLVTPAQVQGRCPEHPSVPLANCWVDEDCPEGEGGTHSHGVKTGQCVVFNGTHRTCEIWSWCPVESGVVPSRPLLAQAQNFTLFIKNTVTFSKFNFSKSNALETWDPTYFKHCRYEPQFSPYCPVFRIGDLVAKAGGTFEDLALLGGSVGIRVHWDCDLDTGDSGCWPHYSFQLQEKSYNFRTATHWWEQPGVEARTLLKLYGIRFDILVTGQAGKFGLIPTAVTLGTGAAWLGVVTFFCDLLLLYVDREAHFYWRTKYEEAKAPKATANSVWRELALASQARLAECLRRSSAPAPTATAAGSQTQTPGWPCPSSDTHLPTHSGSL
# [5] = biological target: T3, P2X4 receptor (Homo sapiens, UniProt Q99571); details: Table 8, antagonists; cited from earlier work
# T3 sequence (Q99571 1-388): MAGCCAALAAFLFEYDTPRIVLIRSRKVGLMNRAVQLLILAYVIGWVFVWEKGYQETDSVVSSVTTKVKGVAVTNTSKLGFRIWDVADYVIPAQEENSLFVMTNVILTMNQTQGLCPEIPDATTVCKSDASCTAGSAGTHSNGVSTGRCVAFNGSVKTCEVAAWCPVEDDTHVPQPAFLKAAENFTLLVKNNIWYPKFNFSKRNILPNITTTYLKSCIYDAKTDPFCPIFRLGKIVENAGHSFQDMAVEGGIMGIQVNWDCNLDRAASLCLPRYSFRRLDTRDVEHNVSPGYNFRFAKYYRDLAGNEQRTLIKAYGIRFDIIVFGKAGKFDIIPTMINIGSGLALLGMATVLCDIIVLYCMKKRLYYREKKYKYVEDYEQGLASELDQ
SMILES,P2X receptors 2 [1],"concentration at which EV71 replication is reduced 10-fold ([2]; EV71 FY 573, RD cells, 46 h) [μM]","concentration at which EV71 replication is reduced 100-fold ([2]; EV71 FY 573, RD cells, 46 h) [µM]","concentration at which EV71 replication is reduced 1,000-fold ([2]; EV71 FY 573, RD cells, 46 h) [µM]","concentration at which EV71 replication is reduced 10,000-fold ([2]; EV71 FY 573, RD cells, 46 h) [µM]","EC50 ([2]; Enterovirus A, EV71, RD, 46 h, read-out: EC50 (50% effective concentration) for inhibiting EV71 replication in RD cells) [µM]","EC50 ([2]; Enterovirus A, EV71, RD cells, summary over RT-PCR, TCID50 and PFU tests, read-out: EC50 that inhibits EV71 clinical isolate (summary of Examples 1-3)) [µM]",P2X receptors 1 [3],P2X receptors 6 [4],P2X receptors 4 [5],"P2X receptors 2 ([1]; Table 8, antagonists)","EC50 ([2]; EV71 FY 573, MOI 0.1, 46 h, viral RNA in supernatant, read-out: EC50 (50% effective concentration) for inhibiting EV71 replication in RD cells) [µM]","P2X receptors 1 ([3]; Table 8, antagonists)"
"Cc1ccc(C(=O)Nc2ccc(S(=O)(=O)O)c3cc(S(=O)(=O)O)cc(S(=O)(=O)O)c23)cc1NC(=O)c1cccc(NC(=O)Nc2cccc(C(=O)Nc3cc(C(=O)Nc4ccc(S(=O)(=O)O)c5cc(S(=O)(=O)O)cc(S(=O)(=O)O)c45)ccc3C)c2)c1 [E02, Suramin Sodium]",+ (key: −: no activity; +: inhibitory concentration >300 nM; ++: inhibitory concentration = 10~300 nM; +++: inhibitory concentration <10 nM),3.44,5.19,6.45,7.63,6.93,< 6.93,++ (key: −: no activity; +: inhibitory concentration >300 nM; ++: inhibitory concentration = 10~300 nM; +++: inhibitory concentration <10 nM),−,−,,,
"Cc1nc(N=Nc2ccc(S(=O)(=O)O)cc2S(=O)(=O)O)c(COP(=O)(O)O)c(C=O)c1O [PPADS, pyridoxal-phosphate-6-azophenyl-2′, 4′-disulphonic acid]",,,,,,,,,+ (+: inhibitory concentration >300 nM),−,++ (++: inhibitory concentration = 10~300 nM),18.9,++ (++: inhibitory concentration = 10~300 nM)
